Assay results as given in US6653478B2, “Substituted benzimidazol-2-ones as vasopressin receptor antagonists and neuropeptide Y modulators” (Ortho-McNeil Pharmaceutical, Inc., priority 2000, dated 2003).

Key:
Parameters in all cases: expressed in transfected cells; host or cells: HEK-293 (membranes)
[1] = molecular target: human V1a receptor (Homo sapiens, UniProt P37288); experiment: V1a binding assay (3H-AVP displacement, HEK-293 membranes); settings: for inhibition at 1 µM: 1.0 μM compound, read-out: V1a@1.0, % Inh
Experimental: (§1) V1a, V1b or V2 Binding Assay
(§2) Receptor binding studies were performed using recombinant human V1a, V1b or V2 receptors. Cellular membranes were harvested from HEK-293 cells transfected to express either the V1a, V1b or V2 receptors. Compounds were evaluated for their ability to displace ^3H-arginine vasopressin (^3H-AVP; specific activity 40-87 Ci/mmol; NEN Life Sciences, Boston, Mass.). Compounds were solubilized in dimethylsulfoxide (DMSO) and diluted to working concentration of 10% DMSO with assay buffer (50 mM Tris, 5 mM MgCl2, 0.1% BSA, pH 7.5). Assay buffer was supplemented with several protease inhibitors (1 mM Pefabloc, 5 μg/ml aprotinin/leupeptin/pepstatin A, 50 μg/ml bacitracin; Sigma Chemical, St. Louis, Mo.). Non-specific binding was determined using 1.25 μM arginine vasopressin (AVP; Peninsula Labs, Belmont, Calif.). Assay reagents and test compounds were added to 96-well round bottom polypropylene plates (145 μl buffer, 5 μl compound in 10% DMSO, 25 μl buffer containing 10,000 cpm tracer, 25 μl cell membrane). After incubation for 1 hour at room temperature, the well contents were aspirated across a Unifilter GF/C plate (Packard Instrument, Downers Grove, Ill.) which had been presoaked in 0.3% polyethyleneimine to prevent peptide sticking. The wells were washed repeatedly with cold saline containing 0.05% Tween 20. The plate was then dried and 25 μl Microscint-20 cocktail (Packard Instruments) added to each well. The plates were sealed and counted on a TopCount scintillation counter (Packard Instruments) using quench correction.

[2] = molecular target: T1, human V1b receptor (Homo sapiens, UniProt P47901); experiment: V1b binding assay (3H-AVP displacement, HEK-293 membranes); settings: for inhibition at 1 µM: 1.0 μM compound, read-out: V1b@1.0, % Inh
T1 sequence (P47901 1-424): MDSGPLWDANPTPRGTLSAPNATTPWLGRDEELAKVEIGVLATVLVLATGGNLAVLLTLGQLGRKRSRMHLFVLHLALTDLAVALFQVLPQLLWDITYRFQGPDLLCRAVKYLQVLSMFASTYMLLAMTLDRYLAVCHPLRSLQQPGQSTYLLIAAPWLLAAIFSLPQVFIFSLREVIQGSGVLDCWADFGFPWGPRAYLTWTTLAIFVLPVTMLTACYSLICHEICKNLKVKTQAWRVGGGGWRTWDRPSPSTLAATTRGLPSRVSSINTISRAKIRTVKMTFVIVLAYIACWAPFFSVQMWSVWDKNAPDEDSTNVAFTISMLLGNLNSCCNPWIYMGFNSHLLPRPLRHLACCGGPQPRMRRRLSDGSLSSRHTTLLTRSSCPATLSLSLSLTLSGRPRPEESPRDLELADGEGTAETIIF
Experimental: as §1, §2

[3] = molecular target: human V2 receptor (Homo sapiens, UniProt P30518); experiment: V2 binding assay (3H-AVP displacement, HEK-293 membranes); settings: 1.0 μM compound; for inhibition at 1 µM: read-out: V2@1.0, % Inh
Experimental: as §1, §2

Chain of human V2 receptor (P30518 whole entry): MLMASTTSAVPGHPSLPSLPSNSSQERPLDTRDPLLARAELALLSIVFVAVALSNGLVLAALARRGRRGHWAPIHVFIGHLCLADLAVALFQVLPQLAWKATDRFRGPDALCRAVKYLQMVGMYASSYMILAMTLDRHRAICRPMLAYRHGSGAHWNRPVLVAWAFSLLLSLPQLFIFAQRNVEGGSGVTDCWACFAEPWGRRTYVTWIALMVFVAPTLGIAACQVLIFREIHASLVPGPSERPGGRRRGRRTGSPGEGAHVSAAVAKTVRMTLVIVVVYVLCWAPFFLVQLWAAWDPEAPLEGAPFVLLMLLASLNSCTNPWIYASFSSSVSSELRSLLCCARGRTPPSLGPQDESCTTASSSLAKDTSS
Chain of human V1a receptor (P37288 whole entry): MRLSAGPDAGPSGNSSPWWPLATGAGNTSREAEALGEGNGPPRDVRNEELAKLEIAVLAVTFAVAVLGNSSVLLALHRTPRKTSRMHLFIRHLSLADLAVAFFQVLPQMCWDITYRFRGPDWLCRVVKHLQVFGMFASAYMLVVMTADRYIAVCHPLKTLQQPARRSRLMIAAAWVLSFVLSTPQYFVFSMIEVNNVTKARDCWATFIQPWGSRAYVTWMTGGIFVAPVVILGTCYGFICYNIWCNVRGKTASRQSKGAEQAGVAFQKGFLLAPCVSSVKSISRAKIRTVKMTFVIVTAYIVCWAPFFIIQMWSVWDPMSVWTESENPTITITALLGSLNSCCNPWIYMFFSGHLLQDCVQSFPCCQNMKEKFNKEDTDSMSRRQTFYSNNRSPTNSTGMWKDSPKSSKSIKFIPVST

With `CC(C)c1ccccc1NC(=O)N1CCC(n2c(=O)n(CCCN3CCCCC3)c3ccccc32)CC1` [Compound 138] the inhibition at 1 µM [1] was 58%, the inhibition at 1 µM [2] was 21% and the inhibition at 1 µM [3] was 0%.
`O=c1n(CCCN2CCC2)c2ccccc2n1C1CCN(C(=S)NC(c2ccccc2)c2ccccc2)CC1` [Compound 140] showed an inhibition at 1 µM [1] of 59%, an inhibition at 1 µM [2] of 28% and an inhibition at 1 µM [3] of 0%.
With `O=c1n(CCCN2CCCCCC2)c2ccccc2n1C1CCN(C(=S)NC(c2ccccc2)c2ccccc2)CC1` [Compound 141] the inhibition at 1 µM [1] was 83%, the inhibition at 1 µM [2] was 29% and the inhibition at 1 µM [3] was 0%.
Compound `O=c1n(CCCN2CCCCCCC2)c2ccccc2n1C1CCN(C(=S)NC(c2ccccc2)c2ccccc2)CC1` [Compound 142] has an IC50 [1] of 68 nM, an inhibition at 1 µM [2] of 56% and an inhibition at 1 µM [3] of 4%.
Work on `O=c1n(CCCN2CC=CCC2)c2ccccc2n1C1CCN(C(=S)NC(c2ccccc2)c2ccccc2)CC1` [Compound 143] yielded an IC50 [1] of 41 nM, an inhibition at 1 µM [2] of 65% and an inhibition at 1 µM [3] of 8%.
Compound `CN1CCN=C1NCCCn1c(=O)n(C2CCN(C(=S)NC(c3ccccc3)c3ccccc3)CC2)c2ccccc21` [Compound 144] has an IC50 [1] of 395 nM, an inhibition at 1 µM [2] of 31% and an inhibition at 1 µM [3] of 2%.
Work on `CC(CN1CCCCC1)Cn1c(=O)n(C2CCN(C(=S)NC(c3ccccc3)c3ccccc3)CC2)c2ccccc21` (stereo not shown) [Compound 146] yielded an inhibition at 0.5 µM ([1]; 0.5 μM compound, read-out: V1a % Inh @0.5) of 15%, an inhibition at 1 µM [1] of 85% and an inhibition at 1 µM [2] of 33%. The inhibition at 1 µM [3] was 0%.
In the case of `CC(CN1CCCCC1)Cn1c(=O)n(C2CCN(C(=O)NC(c3ccccc3)c3ccccc3)CC2)c2ccccc21` (stereo not shown) [Compound 147], the IC50 [1] is reported as 440 nM, the inhibition at 1 µM [2] is reported as 27% and the inhibition at 1 µM [3] is reported as 1%.
In the case of `CC(CN1CCCC1)Cn1c(=O)n(C2CCN(C(=S)NC(c3ccccc3)c3ccccc3)CC2)c2ccccc21` (stereo not shown) [Compound 148], the IC50 [1] is reported as 53 nM, the inhibition at 1 µM [2] is reported as 40% and the inhibition at 1 µM [3] is reported as 1%.
In the case of `CC(CN1CCCC1)Cn1c(=O)n(C2CCN(C(=O)NC(c3ccccc3)c3ccccc3)CC2)c2ccccc21` (stereo not shown) [Compound 149], the IC50 [1] is reported as 42 nM, the inhibition at 1 µM [2] is reported as 44% and the inhibition at 1 µM [3] is reported as 0%.
`O=C(Cc1ccc(N2CCCC2)cc1)n1c(=O)n(C2CCN(C(=S)NC(c3ccccc3)c3ccccc3)CC2)c2ccccc21` [Compound 150] showed an inhibition at 1 µM [1] of 38%, an inhibition at 1 µM [2] of 16% and an inhibition at 1 µM [3] of 0%.
Work on `Cc1ccccc1CNC(=O)N1CCC(n2c(=O)n(CCCN3CCCCC3)c3ccccc32)CC1` [Compound 151] yielded an inhibition at 1 µM [1] of 62%, an inhibition at 1 µM [2] of 37% and an inhibition at 1 µM [3] of 0%.
For `O=C(NC1c2ccccc2-c2ccccc21)N1CCC(n2c(=O)n(CCCN3CCCCC3)c3ccccc32)CC1` [Compound 152], the IC50 [1] was 230 nM, the inhibition at 1 µM [2] was 38% and the inhibition at 1 µM [3] was 2%.
`O=c1n(CCCN2CCCCC2)c2ccccc2n1C1CCN(C(=S)Nc2ccc(N3CCOCC3)cc2)CC1` [Compound 153] showed an inhibition at 1 µM [1] of 0%, an inhibition at 1 µM [2] of 0% and an inhibition at 1 µM [3] of 0%.
`O=c1n(CCCN2CCCCC2)c2ccccc2n1C1CCN(C(=S)Nc2cccnc2)CC1` [Compound 154] gave an inhibition at 1 µM [1] of 7%, an inhibition at 1 µM [2] of 0% and an inhibition at 1 µM [3] of 3%.
In the case of `O=c1n(CCCN2CCCCC2)c2ccccc2n1C1CCN(C(=S)Nc2ccc3c(c2)CCC3)CC1` [Compound 155], the inhibition at 1 µM [1] is reported as 28%, the inhibition at 1 µM [2] is reported as 10% and the inhibition at 1 µM [3] is reported as 5%.
Work on `O=c1n(CCCN2CCCCC2)c2ccccc2n1C1CCN(C(=S)Nc2ccc3c(c2)OCO3)CC1` [Compound 156] yielded an IC50 [1] of 450 nM, an inhibition at 1 µM [2] of 22% and an inhibition at 1 µM [3] of 3%.
With `O=C1OCCC1NC(=S)N1CCC(n2c(=O)n(CCCN3CCCCC3)c3ccccc32)CC1` (stereo not shown) [Compound 157] the inhibition at 1 µM [1] was 5%, the inhibition at 1 µM [2] was 0% and the inhibition at 1 µM [3] was 6%.
Work on `O=c1n(CCCN2CCCCC2)c2ccccc2n1C1CCN(C(=S)NCc2ccco2)CC1` [Compound 158] yielded an inhibition at 1 µM [1] of 55%, an inhibition at 1 µM [2] of 18% and an inhibition at 1 µM [3] of 42%.
`O=c1n(CCCN2CCCCC2)c2ccccc2n1C1CCN(C(=S)NCC2CCCO2)CC1` (stereo not shown) [Compound 159] was tested, and the inhibition at 1 µM [1] was 2%, the inhibition at 1 µM [2] was 10% and the inhibition at 1 µM [3] was 0%.
`O=c1n(CCCN2CCCCC2)c2ccccc2n1C1CCN(C(=S)NCc2cccs2)CC1` [Compound 160] was tested, and the IC50 [1] was 230 nM, the inhibition at 1 µM [2] was 27% and the inhibition at 1 µM [3] was 0%.
Compound `O=c1n(CCCN2CCCCC2)c2ccccc2n1C1CCN(C(=S)Nc2ccccc2-c2ccccc2)CC1` [Compound 161] has an IC50 [1] of 108 nM, an inhibition at 1 µM [2] of 40% and an inhibition at 1 µM [3] of 2%.
In the case of `O=C(Nc1ccccc1-c1ccccc1)N1CCC(n2c(=O)n(CCCN3CCCCC3)c3ccccc32)CC1` [Compound 162], the IC50 [1] is reported as 117 nM, the inhibition at 1 µM [2] is reported as 26% and the inhibition at 1 µM [3] is reported as 4%.
`O=c1n(CCCN2CCCCC2)c2ccccc2n1C1CCN(C(=S)NCc2ccc3c(c2)OCO3)CC1` [Compound 163] was tested, and the IC50 [1] was 150 nM, the inhibition at 1 µM [2] was 27% and the inhibition at 1 µM [3] was 0%.
`O=c1n(CCCN2CCCCC2)c2ccccc2n1C1CCN(C(=S)NCc2ccc(Cl)cc2Cl)CC1` [Compound 164] was tested, and the IC50 [1] was 86 nM, the inhibition at 1 µM [2] was 35% and the inhibition at 1 µM [3] was 5%.
`CN(C)c1ccc(CNC(=S)N2CCC(n3c(=O)n(CCCN4CCCCC4)c4ccccc43)CC2)cc1` [Compound 165] showed an inhibition at 1 µM [1] of 40%, an inhibition at 1 µM [2] of 20% and an inhibition at 1 µM [3] of 3%.
Work on `CSC(=O)NC(=N)N1CCC(n2c(=O)n(CCCN3CCCCC3)c3ccccc32)CC1` [Compound 166] yielded an inhibition at 1 µM [1] of 5%, an inhibition at 1 µM [2] of 16% and an inhibition at 1 µM [3] of 19%.
Compound `O=c1n(Cc2ccc(-c3csnn3)cc2)c2ccccc2n1C1CCN(C(=S)NC(c2ccccc2)c2ccccc2)CC1` [Compound 167] has an inhibition at 1 µM [1] of 12%, an inhibition at 1 µM [2] of 1% and an inhibition at 1 µM [3] of 8%.
With `O=c1n(CCCN2CCCCC2)c2ccccc2n1C1CCN(C(=S)NCc2cccnc2)CC1` [Compound 168] the inhibition at 1 µM [1] was 62%, the inhibition at 1 µM [2] was 25% and the inhibition at 1 µM [3] was 2%.
`O=c1n(CCCN2CCCCC2)c2ccccc2n1C1CCN(C(=S)NCc2ccccc2-c2ccccc2)CC1` [Compound 169] was tested, and the IC50 [1] was 12 nM, the IC50 [2] was 1720 nM and the “V2@1.0, % Inh” value ([3]; 1 µM) was 4%.
`O=c1n(CCCN2CCC(N3CCCCC3)CC2)c2ccccc2n1C1CCN(C(=S)NC(c2ccccc2)c2ccccc2)CC1` [Compound 170] showed an IC50 [1] of 80 nM, an IC50 [2] of 680 nM and an inhibition at 1 µM [3] of 6%.
In the case of `Cc1ccc2c(c1)n(CCCN1CCCCC1)c(=O)n2C1CCN(C(=O)NC(c2ccccc2)c2ccccc2)CC1` [Compound 171], the inhibition at 1 µM [1] is reported as 65%, the inhibition at 1 µM [2] is reported as 33% and the inhibition at 1 µM [3] is reported as 2%.
In the case of `Cc1ccc2c(c1)n(CCCN1CCCCC1)c(=O)n2C1CCN(C(=S)NC(c2ccccc2)c2ccccc2)CC1` [Compound 172], the IC50 [1] is reported as 72 nM, the IC50 [2] is reported as 700 nM and the inhibition at 1 µM [3] is reported as 6%.
Work on `CC(C)(NC(=S)N1CCC(n2c(=O)n(CCCN3CCCCC3)c3ccccc32)CC1)c1ccccc1` [Compound 173] yielded an IC50 [1] of 250 nM, an inhibition at 1 µM [2] of 43% and an inhibition at 1 µM [3] of 0%.
For `O=c1n(CCCN2CCCCC2)c2ccccc2n1C1CCN(C(=S)NCc2ccc(Cl)c(Cl)c2)CC1` [Compound 174], the IC50 [1] was 420 nM, the inhibition at 1 µM [2] was 34% and the inhibition at 1 µM [3] was 0%.
